Counter-ions that a name gives are not always drawn.
biological target: T1, human renin (Homo sapiens, UniProt P00797); assay: In vitro test with pure human renin (angiotensin I production from human tetradecapeptide renin substrate, measured by RIA); assay type: biochemical; conditions: pure human renin, pH 7.4, three hours at 37° C. (less 4° C.), human tetradecapeptide substrate, angiotensin I by RIA; read-out: IC50 values (concentration of the inhibitor at which the enzymatic activity is inhibited by 50%)
T1 sequence (P00797 67-406): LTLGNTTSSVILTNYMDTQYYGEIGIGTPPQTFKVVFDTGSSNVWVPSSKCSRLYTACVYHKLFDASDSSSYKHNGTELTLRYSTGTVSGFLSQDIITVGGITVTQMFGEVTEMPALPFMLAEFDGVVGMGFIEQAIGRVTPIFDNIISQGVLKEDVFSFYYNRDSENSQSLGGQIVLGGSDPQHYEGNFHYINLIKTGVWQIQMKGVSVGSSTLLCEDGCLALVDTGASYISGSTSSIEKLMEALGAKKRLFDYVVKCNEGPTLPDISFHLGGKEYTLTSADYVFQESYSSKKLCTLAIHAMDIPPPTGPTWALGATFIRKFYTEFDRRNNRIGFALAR
Method: In vitro test with pure human renin
The test is carried out in Eppendorf test tubes. The incubation mixture consists of (1) 100 μl of human renin in buffer A (0.1M sodium phosphate solution, pH 7.4, containing 0.1% bovine serum albumin, 0.1% sodium azide and 1 mM ethylenediaminetetraacetic acid), sufficient for a renin activity of 2-3 ng of angiotensin l/ml/hr.; (2) 145 μl of buffer A: (3) 30 μl of 10 mM human tetradecapeptide renin substrate (hTD) in 10 mM hydrochloric acid: (4) […] of dimethyl sulphoxide with or without inhibitor and (5) 10 μl of a 0.03 molar solution of hydroxyquinoline sulphate in water.
The samples are incubated for three hours at 37° C. and, respectively, 4° C. in triplicate. 2×100 μl samples per test tube are used in order to measure the production of angiotensin I via RIA (standard radioimmunoassay; clinical assay solid phase kit). […] The production of angiotensin I is determined by the difference between the test at 37° C, and that at 4° C.
The following controls are carried out:
(a) Incubation of hTD samples without renin and without inhibitor at 37° C. and 4° C. The difference between these two values gives the base value of the angiotensin I production.
(b) Incubation of hTD samples with renin, but without inhibitor at 37° C. and 4° C. The difference between these values gives the maximum value of the angiotensin I production.
In each sample the base value of the angiotensin I production is subtracted from the angiotensin I production which is determined. The difference between the maximum value and the base value gives the value of the maximum substrate hydrolysis (=100%) by renin.
The IC50 values are determined from a linear regression curve from a logit-log plot.

| IC50 [nM] | Structure (SMILES) |
| --- | --- |
| 2 | CN(C)Cc1ccc2ccc(CO[C@H]3CNCC[C@@H]3c3ccc(OCCCOCc4ccccc4)cc3)cc2c1 (racemic) [QQ, (7-{(3RS,4RS)-4-[4-(3-benzyloxy-propoxy)-phenyl]-piperidin-3-yloxymethyl}-naphthalen-2-ylmethyl)-dimethyl-amine] |
| 0.6 | COc1cc(CO[C@H]2CNCC[C@@H]2c2cnc(OCCCCC3CCCCC3)nc2)c(OC)c2ccccc12 (relative stereo) [FF] |
| 17 | COC[C@@H]1CNC[C@H](OCc2ccc3ccccc3c2)[C@H]1c1ccc(COCc2ccccc2)cc1 (racemic) [J, (3SR,4RS,5RS)-4-(4-benzyloxymethyl-phenyl)-3-methoxymethyl-5-(naphthalen-2-ylmethoxy)-piperidine] |
| 40 | c1ccc(COCCCOc2ccc([C@H]3CCNC[C@@H]3OCc3ccc4c(c3)OCCO4)cc2)cc1 (racemic) [D, (3RS,4RS)-4-[4-(3-benzyloxy-propoxy)-phenyl]-3-(2,3-dihydro-benzo[1,4]dioxin-6-ylmethoxy)-piperidine] |
| 24 | OCC(O)COCc1ccc2cc(CO[C@H]3CNCC[C@@H]3c3ccc(OCCCOCc4ccccc4)cc3)ccc2c1 (mixture of isomers) [U, a mixture of (3RS,4RS)- and (3SR,4SR)-4-[4-(3-benzyloxy-propoxy)-phenyl]-3-[6-[(RS)-2,3-dihydroxy-propoxymethyl]-naphthalen-2-ylmethoxy]-piperidine] |
| 0.5 | COc1ccccc1COCCCOc1ccc([C@H]2CCNC[C@@H]2OCc2ccc3c(c2)NCCC3)cc1 (racemic) [YY, (3RS,4RS)-4-[4-[3-(2-methoxy-benzyloxy)-propoxy]-phenyl]-3-(1,2,3,4-tetrahydro-quinolin-7-ylmethoxy)-piperidine] |
| 6 | OCC(O)COCCOc1ccc2ccc(CO[C@H]3CNCC[C@@H]3c3ccc(OCCCOCc4ccccc4)cc3)cc2c1 (mixture of isomers) [P, a mixture of (RS)- and (SR)-3-[2-[7-[(3RS,4RS)-4-[4-(3-benzyloxy-propoxy)-phenyl]-piperidin-3-yloxymethyl]-naphthalen-2-yloxy]-ethoxy]-propane-1,2-diol hydrochloride (1:1)] |
| 3 | c1ccc(COCCCOc2ccc([C@H]3[C@H](COCCN4CCOCC4)CNC[C@@H]3OCc3ccc4ccccc4c3)cc2)cc1 (relative stereo) [BB] |
| 5 | OCC(O)COCc1ccc2ccc(CO[C@H]3CNCC[C@@H]3c3ccc(OCCCOCc4ccccc4)cc3)cc2c1 (mixture of isomers) [T, a mixture of (3RS,4RS)- and (3SR,4SR)-4-[4-(3-benzyloxy-propoxy)-phenyl]-3-[7-[(RS)-2,3-dihydroxy-propoxymethyl]-naphthalen-2-ylmethoxy]-piperidine] |
| 2 | OCCCO[C@@H]1CNC[C@H](OCc2ccc3ccccc3c2)[C@H]1c1ccc(OCCCOCc2ccccc2)cc1 (racemic) [W, 3-[(3RS,4SR,5SR)-4-[4-(3-benzyloxy-propoxy)-phenyl]-3-(naphthalen-2-ylmethoxy)-piperidin-5-yloxy]-propan-1-ol] |
| 9 | COc1ccccc1COCCCOc1ccc([C@H]2CCNC[C@@H]2OCc2ccc3ccc(=O)[nH]c3c2)cc1 (racemic) [WW, (3RS,4RS)-4-[4-[3-(2-methoxy-benzyloxy)-propoxy]-phenyl]-3-(2-oxo-1,2-dihydro-quinolin-7-ylmethoxy)-piperidine] |
| 3 | c1ccc(COCCCOc2ccc([C@@H]3[C@@H](OCc4ccc5ccccc5c4)CNC[C@H]3OCCN3CCOCC3)cc2)cc1 (racemic) [Y, 4-{2-[(3RS,4RS,5SR)-4-[4-(3-benzyloxy-propoxy)-phenyl]-3-(naphthalen-2-ylmethoxy)-piperidin-5-yloxy]-ethyl}-morpholine] |
| 57 | c1ccc(-c2cc(COc3ccc([C@H]4CCNC[C@@H]4OCc4ccc5ccccc5c4)cc3)on2)cc1 (racemic) [F, (3RS,4RS)-3-(naphthalen-2-ylmethoxy)-4-[4-(3-phenyl-isoxazol-5-ylmethoxy)-phenyl]-piperidine trifluoroacetate] |
| 1 | COc1ccc(CO[C@H]2CNC[C@@H](OCc3ccc(OC)cc3)[C@@H]2c2ccc(OCCCOCc3ccccc3)cc2)cc1 [AA, (3R,4s,5S)-4-[4-(3-benzyloxy-propoxy)-phenyl]-3,5-bis-(4-methoxy-benzyloxy)-piperidine] |
| 11 | O=C(OCCOc1ccc([C@H]2CCNC[C@@H]2OCc2ccc3ccccc3c2)cc1)c1cccs1 (racemic) [A, (3RS,4RS)-2-[4-(3-naphthalen-2-ylmethoxy-piperidin-4-yl)-phenoxy]-ethylthiophene-2-carboxylate hydrochloride] |
| 0.4 | c1ccc(COCCCOc2ccc([C@H]3[C@H](CSc4ccncc4)CNC[C@@H]3OCc3ccc4ccccc4c3)cc2)cc1 (relative stereo) [EE] |
| 17 | OCC(O)COc1ccc2ccc(CO[C@H]3CNCC[C@@H]3c3ccc(OCCCOCc4ccccc4)cc3)cc2c1 (mixture of isomers) [O, a mixture of (RS)- and (SR)-3-[7-[(3RS,4RS)-4-[4-(3-benzyloxy-propoxy)-phenyl]-piperidin-3-yloxymethyl]-naphthalen-2-yloxy]-propane-1,2-diol] |
| 3 | O=C(Cc1ccc2ccccc2c1)[C@H]1CNCC[C@@H]1c1ccc(OCCCOCc2ccccc2)cc1 (relative stereo) [R, [(3RS,4SR)-4-[4-(3-benzyloxy-propoxy)-phenyl]-piperidin-3-yl]-2-naphthalen-2-yl-ethanone hydrochloride (1:1)] |
| 2 | COc1cc(CO[C@H]2CNC[C@@H](O)[C@@H]2c2ccc(OCCCOCc3ccccc3)cc2)c(OC)c2ccccc12 (racemic) [S, (3RS,4SR,5SR)-4-[4-(3-benzyloxy-propoxy)-phenyl]-3-(1,4-dimethoxy-naphthalen-2-ylmethoxy)-piperidin-5-ol] |
| 270 | Fc1ccc([C@H]2CCNC[C@@H]2OCc2cc(OCc3ccccc3)c3ccccc3c2)cc1 [RR, (3R,4R)3-(4-Benzyloxy-naphthalen-2-ylmethoxy)-4-(4-fluoro-phenyl)-piperidne] |
| 0.5 | COc1ccccc1COCCCOc1ccc([C@H]2CCNC[C@@H]2OCc2cc(OC)c3ccccc3c2OC)cn1 (relative stereo) [TT] |
| 0.03 | COc1ccccc1COCCCOc1ccc([C@H]2[C@H](O)CNC[C@@H]2OCc2cc(OC)c3ccccc3c2OC)cc1 (racemic) [ZZ, (3RS,4SR,5SR)-3-(1,4-dimethoxy-naphthalen-2-ylmethoxy)-4-[4-[3-(2-methoxy-benzyloxy)-propoxy]-phenyl]-piperidin-5-ol] |
